Assays:
[1] = system: permanent 2-VO rats (chronic cerebral hypoperfusion); test: Morris water maze in permanent 2-VO (BCCAO) rats; format: in vivo, rat; conditions: Piracetam 600 mg/kg
Excerpt: Chronic cerebral hypoperfusion was proceeded by a permanent, bilateral occlusion of the common carotid arteries (2-VO) of adult rats. The rats were anesthetized with 10% trichloro-acetaldehyde, and temperature probe was inserted into the rectum, and a separate heating lamp was used to maintain rectal temperature at normothermic level. After a midline neck skin incision, the common carotid artery were exposed and ligated by a 5-0 nylon suture.
Rats were randomly divided into six experimental groups (20 rats/each group): one sham-operated group, one vehicle control group, one piracetam-treated group (600 mg/kg), and three dl-PHPB-treated groups (13, 39, and 129 mg/kg). In 10 days after onset of 2-VO, drugs and vehicle were administered orally to rats for 21 days (one time/each day). The spatial learning and memory capability of rats were detected by Morris water maze in the 25-30 days after operation. The Morris water test was commenced at 40 min after drugs treated. The biochemical and pathology assays were conducted later (in 24 h) after behavioral tests.
Subjects were tested in a Morris water maze. This test is based on a standardized assessment of spatial learning ability. The water maze apparatus consisted of a circular, stainless pool (120 cm in diameter, 60 cm in height). It was placed in a dimly lit, sound-proof test room. Multiple distant cues around the room (window, cabinets, furniture) were kept in the same location throughout the experiments. The water was filled to a depth of 40 cm at 25±1° C. and was made opaque by adding milk powder to prevent visualization of the platform. A transparent platform (10 cm diameter) was put 1.5 cm below the surface of the water. The tank was divided into four quadrants with the platform in a fixed position in one quadrant. The subjects were placed into the maze facing the pool wall and were allowed two trials per day, 60 s per trial, to find the hidden platform. If the subject found the platform within the 60 s, it was given a 10-s rest period on the platform between trials. If the pedestal was not located within the time allotted, the subject was placed on to the platform and allowed 10 s until the next trial. The escape latency (time to reach the platform) was used to assess acquisition of the water maze task. Sessions were repeated for five consecutive days. On the sixth day, the platform was removed and the rat was allowed to search for the platform for 60 s (probe test). The time in the platform quadrant and latency time to cross platform location were recorded to measure the spatial learning ability without the influence of chance encounters with the platform. The Morris water maze sessions were recorded with a video camera for offline analysis.

GFAP = GFAP immunohistochemistry, activated astrocytes of 2-VO rats; format: in vivo, rat
Experimental: The method for tissue fixation was described above. Serial coronal sections (40 μm) of the brains were cut through the dorsal hippocampus on a freezing microtome and collected in 6-well plates containing 0.01 M PBS. The detection of GFAP and BDNF immunoreactivity was performed using a conventional avidin-biotin-immunoperoxidease technique.
For quantitative analysis, one from every five samples in a continuous series of hippocampal or cortical tissue sections was taken, and was processed immunohistochemically. Thus, three slides were taken from each rat, and were read under an objective (×1.6) microscope. The total area of positively stained neurons was counted with Image-pro Plus 5.0 software.
Cerebral damage caused by hypoperfusion may be the basis for spatial learning and memory impairment, including earliest white matter damage, accompanied by an increase of astrocytes and microglia activation. Glial fibrillary acidic protein (GFAP) immunohistochemical staining can be used to label the activated astrocytes. 2-3 photos were taken from each selected slices in the same regions. The number of the GFAP positive astrocytes was calculated as the average value of the region. Four anatomical regions were selected to observe: the cortex, hippocampus, corpus callosum and optic tract.

[2] = 1st of 5 M/R/T/L column groups (day not printed)
[3] = 2nd of 5 M/R/T/L column groups (day not printed)
[4] = 3rd of 5 M/R/T/L column groups (day not printed)
[5] = 4th of 5 M/R/T/L column groups (day not printed)
[6] = 5th of 5 M/R/T/L column groups (day not printed)

For NC(=O)CN1CCCC1=O [Piracetam, reference compound], the “search strategy times, linear mode (L)” value [1, 2] was 1, the “search strategy times, marginal mode (M)” value [1, 2] was 10 and the “search strategy times, random mode (R)” value [1, 2] was 15. For the same compound, the “search strategy times, tendency mode (T)” value [1, 2] was 14, the “search strategy times, linear mode (L)” value [1, 3] was 8 and the “search strategy times, marginal mode (M)” value [1, 3] was 3. For the same compound, the “search strategy times, random mode (R)” value [1, 3] was 11, the “search strategy times, tendency mode (T)” value [1, 3] was 17 and the “search strategy times, linear mode (L)” value [1, 4] was 10. The “search strategy times, marginal mode (M)” value [1, 4] was 1, the “search strategy times, random mode (R)” value [1, 4] was 6 and the “search strategy times, tendency mode (T)” value [1, 4] was 23. The “search strategy times, linear mode (L)” value [1, 5] was 10, the “search strategy times, marginal mode (M)” value [1, 5] was 1 and the “search strategy times, random mode (R)” value [1, 5] was 7. The “search strategy times, tendency mode (T)” value [1, 5] was 23, the “search strategy times, linear mode (L)” value [1, 6] was 19 and the “search strategy times, marginal mode (M)” value [1, 6] was 1. The “search strategy times, random mode (R)” value [1, 6] was 8, the “search strategy times, tendency mode (T)” value [1, 6] was 12 and the “GFAP-positive cells in the optic tract” value (GFAP; Piracetam, 21 days) was “significantly less than the vehicle group”. The “GFAP-positive cells in the hippocampus” value (GFAP; administration of 21 days, P<0.05 or P<0.01) was “significantly less than in the vehicle group” and the “GFAP-positive cells in the cortex” value (GFAP; administration of 21 days, in particular dl-PHPB 39 mg/kg (P<0.01)) was “significantly less than in the vehicle group”.
